The record followed here is patent publication EP4782453A1 (Beyang Therapeutics Co., Ltd., priority 2023, dated 2025).

Each structure is given as a SMILES string.

By IC50 is commonly meant the concentration needed to halve the response being measured.

The first assay has as its target T1, Menin-MLL (Homo sapiens, UniProt O00255).
T1 construct: His-Menin (M1-L615 end); purchased BIORTUS BP9210
T1 sequence (O00255 1-615 isoform O00255-1): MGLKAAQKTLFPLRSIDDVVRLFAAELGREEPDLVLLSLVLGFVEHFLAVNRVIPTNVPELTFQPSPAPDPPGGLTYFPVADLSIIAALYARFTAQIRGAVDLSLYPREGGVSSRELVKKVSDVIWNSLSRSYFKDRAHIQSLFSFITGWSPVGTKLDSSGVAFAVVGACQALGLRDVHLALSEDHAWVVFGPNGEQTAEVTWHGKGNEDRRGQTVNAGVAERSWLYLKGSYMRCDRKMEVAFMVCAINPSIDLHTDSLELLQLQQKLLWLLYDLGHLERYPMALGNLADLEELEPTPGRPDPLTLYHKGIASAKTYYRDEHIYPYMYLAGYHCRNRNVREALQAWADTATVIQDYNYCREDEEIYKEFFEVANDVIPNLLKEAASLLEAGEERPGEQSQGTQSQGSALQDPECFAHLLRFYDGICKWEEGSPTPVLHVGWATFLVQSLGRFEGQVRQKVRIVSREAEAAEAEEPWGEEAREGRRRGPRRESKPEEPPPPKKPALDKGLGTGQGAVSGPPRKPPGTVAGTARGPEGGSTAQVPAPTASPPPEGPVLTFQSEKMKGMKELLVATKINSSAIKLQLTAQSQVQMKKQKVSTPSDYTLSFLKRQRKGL
As to the kind of experiment: Inhibitory activity against Menin-MLL binding (fluorescence polarization). Conditions: Menin-MLL IC50, fluorescence polarization; 150 nM His-Menin, 15 nM FITC-MLL; 25°C for 60 min. Put shortly: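 His-Menin (M1-L615, 150 nM) preincubated with compound 15 min at 25 °C in HEPES pH 7.5, 50 mM NaCl, 1 mM DTT, 0.01% BSA, then 15 nM FITC-MLL4-43 peptide added for 60 min at 25 °C. Fluorescence polarization read; IC50 from 4-parameter logistic fit, duplicates.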
In general terms: Polarisation of emitted light reports the rotation of a fluorescent probe.
For the molecule `CCN(C(=O)c1cc(F)ccc1-c1cc(C2CN(C(=O)[C@H]3NC[C@@H]4CCC[C@@H]43)C2)cn2c(C)nc(F)c12)C(C)C` [Example 274], the IC50 came to 19.5 nM.
In the case of `Cc1nc(F)c2c(-c3ccc(F)cc3C(=O)N3CCOCC3C)cc(C3CN(C(C)C4CCN(C(=O)C5CC5F)CC4)C3)cn12` (stereo not shown) [Example 301], the IC50 came to 9 nM.
With `Cc1nc(F)c2c(-c3ccc(F)cc3C(=O)N3CCOC[C@H]3C)cc(C3CN([C@@H](C)C4CCN(C(=O)[C@@H]5C[C@@H]5F)CC4)C3)cn12` [Example 303], the IC50 worked out at 5 nM.

Staying with this assay, now noted: fluorescence polarization; 150 nM His-Menin, 15 nM FITC-MLL; 25°C for 60 min; read-out: Menin-MLL IC50.
Take `Cc1nc(F)c2c(-c3ccc(F)cc3C(=O)N3CCOCC3C)cc(C3CN(C(C)C4CCN(C(=O)CC#N)CC4)C3)cn12` (stereo not shown) [Example 263-1]: the IC50 amounted to 74 nM.
On the same count and under the same terms, for `CNC(=O)N1CCC([C@@H](C)N2CC(c3cc(-c4ccc(F)cc4C(=O)N4CCOC[C@H]4C)c4c(F)nc(C)n4c3)C2)CC1` [Example 264-1] the value was 116 nM.
The same measure, in the same setting: as for `CCOC(=O)N1CCC(CN2CC(c3cc(-c4ccc(F)cc4C(=O)N4CCOC[C@H]4C)c4c(F)nc(C)n4c3)C2)CC1` [Example 270], the figure is 24 nM; as for `Cc1nc(F)c2c(-c3ccc(F)cc3C(=O)N3CCOC[C@H]3C)cc(C3CN(CC4CCN(S(C)(=O)=O)CC4)C3)cn12` [Example 273], 44 nM.
As to `Cc1nc(F)c2c(-c3ccc(F)cc3C(=O)N3CCOC[C@H]3C)cc(C3CN(C[C@H]4CC[C@@H](c5cnn(C)c5)CC4)C3)cn12` [Example 276-1, (3R)-4-{5-fluoro-2-[1-fluoro-3-methyl-6-(1-{[(1s,4s)-4-(1-methyl-1H-pyrazol-4-yl)cyclohexyl]methyl}azacyclobutan-3-yl)imidazo[1,5-a]pyridin-8yl]benzoyl}-3-methylmorpholine], the IC50 is 15 nM.
Turning to `Cc1nc(F)c2c(-c3ccc(F)cc3C(=O)N3CCOC[C@H]3C)cc(C3CN(C[C@H]4CC[C@H](c5cnn(C)c5)CC4)C3)cn12` [Example 276-2, (3R)-4-{5-fluoro-2-[1-fluoro-3-methyl-6-(1-{[(1r,4r)-4-(1-methyl-1H-pyrazol-4-yl)cyclohexyl]methyl}azacyclobutan-3-yl)imidazo[1,5-a]pyridin-8yl]benzoyl}-3-methylmorpholine], the IC50 is 7 nM.
Regarding `CCC(C1CCN(C(C)=O)CC1)N1CC(c2cc(-c3ccc(F)cc3C(=O)N3CCOC[C@H]3C)c3c(F)nc(C)n3c2)C1` (stereo partly drawn) [Example 280, 1-(4-{1-[3-(1-fluoro-8-{4-fluoro-2-[(3R)-3-methylmorpholin-4-carbonyl]phenyl}-3-methylimidazo[1,5-a]pyridin-6-yl)azacyclobutan-1-yl]propyl}piperidin-1-yl)ethan-1-one], the IC50 was 19.5 nM.
As for `CC[C@H](C1CCN(C(C)=O)CC1)N1CC(c2cc(-c3ccc(F)cc3C(=O)N3CCOC[C@H]3C)c3c(F)nc(C)n3c2)C1` [Example 280-2, 1-{4-[(1R)-1-[3-(1-fluoro-8-{4-fluoro-2-[(3R)-3-methylmorpholin-4-carbonyl]phenyl}-3-methylimidazo[1,5-a]pyridin-6-yl)azacyclobutan-1-yl]propyl]piperidin-1-yl}ethan-1-one], the IC50 stood at 160 nM.
Take `CCN(C(=O)c1cc(F)ccc1-c1cc(C2CN([C@@H](C)C3CCN(C(C)=O)CC3)C2)cn2c(C)ncc12)C(C)C` [Example 281-1]: the IC50 amounted to 9 nM.
On the same count and under the same terms, for `CCN(C(=O)c1cc(F)ccc1-c1cc(C2CN([C@H](C)C3CCN(C(C)=O)CC3)C2)cn2c(C)ncc12)C(C)C` [Example 281-2] the value was 79 nM.
The same measure, in the same setting: for `CCN(C(=O)c1cc(F)ccc1-c1cc(C2CN(C(C)C3CCN(C(C)=O)CC3)C2)cn2c(C)ncc12)C(C)C` (stereo not shown) [Example 281] the value was 7 nM; for `CCNC(=O)N1CCC([C@@H](C)N2CC(c3cc(-c4ccc(F)cc4C(=O)N(CC)C(C)C)c4c(F)nc(C)n4c3)C2)CC1` [Example 282-1, N-ethyl-4-[(1R)-1-[3-(8-{2-[ethyl(isopropyl)aminoformyl]-4-fluorophenyl}-1-fluoro-3-methylimidazo[1,5-a]pyridin-6-yl)azacyclobutan-1-yl]ethyl]piperidin-1-formamide], 9 nM; for `CCNC(=O)N1CCC([C@H](C)N2CC(c3cc(-c4ccc(F)cc4C(=O)N(CC)C(C)C)c4c(F)nc(C)n4c3)C2)CC1` [Example 282-2, N-ethyl-4-[(1S)-1-[3-(8-{2-[ethyl(isopropyl)aminoformyl]-4-fluorophenyl}-1-fluoro-3-methylimidazo[1,5-a]pyridin-6-yl)azacyclobutan-1-yl]ethyl]piperidin-1-formamide], 1 nM.
`CCN(C(=O)c1cc(F)ccc1-c1cc(C2CN([C@H](C)C3CCN(C(=O)NC)CC3)C2)cn2c(C)nc(F)c12)C(C)C` [Example 283-1]: the IC50 was 20 nM.
In the case of `CCN(C(=O)c1cc(F)ccc1-c1cc(C2CN([C@@H](C)C3CCN(C(=O)NC)CC3)C2)cn2c(C)nc(F)c12)C(C)C` [Example 283-2], the IC50 stood at 2 nM.
Regarding `CCN(C(=O)c1cc(F)ccc1-c1cc(C2CN([C@H](C)C3CCN(C(=O)CO)CC3)C2)cn2c(C)nc(F)c12)C(C)C` [Example 284-1], the IC50 came out at 39 nM.
The same measure, in the same setting: for `CCN(C(=O)c1cc(F)ccc1-c1cc(C2CN([C@H](C)C3CCN(C(C)=O)CC3)C2)cn2c(C)nc(F)c12)C(C)C` [Example 288-1] the value was 11 nM; for `CCN(C(=O)c1cc(F)ccc1-c1cc(C2CN([C@@H](C)C3CCN(C(C)=O)CC3)C2)cn2c(C)nc(F)c12)C(C)C` [Example 288-2], 2 nM; for `CO[C@@H]1CN(CCC[C@H](C(C)C)N2CC(c3cc(-c4ccc(F)cc4C(=O)N4CCOC[C@H]4C)c4c(F)nc(C)n4c3)C2)C[C@H]1O` [Example 291-1, (3R,4R)-1-[(4R)-4-[3-(1-fluoro-8-{4-fluoro-2-[(3R)-3-methylmorpholin-4-carbonyl]phenyl}-3-methylimidazo[1,5-a]pyridin-6-yl)azacyclobutan-1-yl]-5-methylhexyl]-4-methoxypyrrolidin-3-ol], 6 nM.
The same measure, in the same setting: as for `CCN(C(=O)c1cc(F)ccc1-c1cc(CC2CN([C@@H](CCCN(C)CCOC)C(C)C)C2)n2c(C)cncc12)C(C)C` [Example 296-2, N-ethyl-5-fluoro-2-[6-({1-[(3S)-6-[(2-methoxyethyl)(methyl)amino]-2-methylhexan-3-yl]azacyclobutan-3-yl}methyl)-4-methylpyrrolo[1,2-a]pyrazin-8-yl]-N-(isopropyl)benzamide], the figure is 3 nM; as for `Cc1nc(F)c2c(-c3ccc(F)cc3C(=O)N3CCOC[C@H]3C)cc(C3CN([C@@H](CO[C@@H]4CCCN(C)C4)C(C)C)C3)cn12` [Example 297-2, (3R)-4-[5-fluoro-2-(1-fluoro-3-methyl-6-{1-[(2R)-3-methyl-1-{[(3R)-1-methylpiperidin-3-yl]oxy}butan-2-yl]azacyclobutan-3-yl}imidazo[1,5-a]pyridin-8yl)benzoyl]-3-methylmorpholine], 13.5 nM; as for `Cc1nc(F)c2c(-c3ccc(F)cc3C(=O)N3CCOC[C@H]3C)cc(C3CN([C@H](CO[C@@H]4CCN(C)C4)C(C)C)C3)cn12` [Example 298, (3R)-4-[5-fluoro-2-(1-fluoro-3-methyl-6-{1-[(2S)-3-methyl-1-{[(3R)-1-methylpyrrolidin-3-yl]oxy}butan-2-yl]azacyclobutan-3-yl}imidazo[1,5-a]pyridin-8yl)benzoyl]-3-methylmorpholine], 14.5 nM.
Same read-out and setting: as for `Cc1nc(F)c2c(-c3ccc(F)cc3C(=O)N3CCOC[C@H]3C)cc(C3CN([C@@H](C)C4CCN(C(=O)C5CC5)CC4)C3)cn12` [Example 299], the figure is 15 nM.
For the molecule `Cc1nc(F)c2c(-c3ccc(F)cc3C(=O)N3CCOC[C@H]3C)cc(C3CN([C@@H](C)C4CCN(C(=O)C(F)F)CC4)C3)cn12` [Example 300], the IC50 stood at 24 nM.
Same read-out and setting: as for `Cc1nc(F)c2c(-c3ccc(F)cc3C(=O)N3CCOC[C@H]3C)cc(C3CN([C@@H](C)C4CCN(C(=O)C(C)(F)F)CC4)C3)cn12` [Example 302], the figure is 22 nM.
With `Cc1nc(F)c2c(-c3ccc(F)cc3C(=O)N3CCOC[C@H]3C)cc(C3CN([C@@H](C)C4CCN(C(=O)CC(F)F)CC4)C3)cn12` [Example 304], the IC50 turned out to be 8 nM.
Still for that read-out and setting: for `CCN(C(=O)c1cc(F)ccc1-c1cc(C2CN([C@@H](CCCN(C)CCOC)C(C)C)C2)cn2c(C)nc(F)c12)C(C)C` [Example 307-1, N-ethyl-5-fluoro-2-(1-fluoro-6-{1-[(3S)-6-[(2-methoxyethyl)(methyl)amino]-2-methylhexan-3-yl]azacyclobutan-3-yl}-3-methylimidazo[1,5-a]pyridin-8-yl)-N-(isopropyl)benzamide] the value was 14.5 nM; for `Cc1nc(F)c2c(-c3ccc(F)cc3C(=O)N3CCOC[C@H]3C)cc(C3CN(C(CC[C@H]4CN(C)CCO4)C(C)C)C3)cn12` (stereo partly drawn) [Example 308, (3R)-4-{5-fluoro-2-[1-fluoro-3-methyl-6-(1-{4-methyl-1-[(2S)-4-methylmorpholin-2-yl]pentan-3-yl}azacyclobutan-3-yl)imidazo[1,5-a]pyridin-8yl]benzoyl}-3-methylmorpholine], 49 nM.
